Measurements published in patent publication US9632088B2, “Methods and compositions for gamma-secretase assay” (MEMORIAL SLOAN-KETTERING CANCER CENTER, priority 2010, dated 2017).

How the values were obtained:
[1] = target: T1, γ-secretase (HeLa membrane) (Homo sapiens, UniProt P49768); assay: In vitro N1-Sb1 γ-secretase assay (ALPHA detection with SM320), HeLa membrane; format: biochemical; settings: 0.25% CHAPSO; for IC50: read-out: IC50 in inhibiting N1-Sb1 cleavage
T1 construct: host or cells: HeLa-S3 cells, total membrane fraction
Procedure: (§1) HeLa membrane fraction was isolated from HeLa-S3 cells (National Cell Culture Center). The cell pellet was resuspended in Buffer A (50 mM MES, 150 mM KCl, 5 mM CaCl2, 5 mM MgCl2) and lysed by passage through a French Press. N2a cells (murine neuroblastoma cells) over-expressing wild-type PS1, or mutants M146L or E280A, were obtained from Dr. Sangram Sisodia (University of Chicago, Chicago, Ill.). These cells were maintained in 50% Dulbecco's modified Eagle's medium high glucose, 50% Opti-Mem Reduced Serum Media, and 10% fetal calf serum. Cultured cells were pelleted by centrifugation and resuspended in hypotonic buffer (40 mM Tris, pH 7.4, 10 mM NaCl, 1 mM EDTA, and 0.5 mM DTT) for 20 minutes before being lysed with a dounce homogenizer. Nuclear debris from the HeLa and N2a cells were pelleted at 3000 rpm for 30 minutes. The resulting supernatants were ultracentrifuged at 100,000×g for 1 hour. The pellet that contained total cell membrane was resuspended in Buffer A. Mouse brains overexpressing knock-in wild type or M146V PS1 (gift from Dr. Hui Zheng, Amylin Pharmaceuticals, San Diego, Calif.) were homogenized with dounce homogenizer. The cell lysate was centrifuged at 3000 rpm for 30 minutes. The supernatants were ultracentrifuged at 100,000×g for 1 hour. Protein concentration was determined with the DC Protein Assay Kit according to the manufacturer's instructions (Bio-Rad, Hercules, Calif.).
An in vitro γ-secretase assay using a novel recombinant APP-derived substrate (termed “Sb4”) is disclosed in co-pending application U.S. Ser. No. 12/776,141. In the present assay based on a Notch-derived substrate, N1-Sb1 was incubated with the cell membrane fraction, prepared as described above, in the presence of 0.25% CHAPSO and 1×PIPES buffer (50 mM PIPES, pH 7.0, 150 mM KCl, 5 mM CaCl2, 5 mM MgCl2. The reaction was incubated at 37° C. for 2 hours. The Perkin Elmer AlphaScreen™ detection system was employed to assay for Notch cleavage. AlphaScreen (PerkinElmer Life and Analytical Sciences, Shelton, Conn.) is a bead based non-radioactive Amplified Luminescent Proximity Homogeneous Assay (ALPHA). When a biological interaction brings the beads together, a cascade of chemical reactions acts to produce a greatly amplified signal. Specifically, upon laser excitation, a photosensitizer in the “Donor” bead converts ambient (triplet) oxygen to the more reactive singlet state. […] As a result no fluorescence signal at 520-620 nm is produced.
In the present system, antibody SM320, Protein A-conjugated acceptor beads, and Streptavidin-conjugated donor beads (PerkinElmer) were added to the reaction at a final concentration of 0.2 μg/ml, 2.5 μg/ml and 5 μg/ml, respectively (diagrammed in FIG. 5A). […] The ALPHA signal was detected using the Envision plate reader (Perkin Elmer). The reactions were excited at 680 nm and signal was detected at 615 nm.
HeLa membrane was incubated with N1-Sb1 substrate in the presence of 0.25% CHAPSO. The γ-secretase cleavage product (cN1-Sb1) was detected by the PerkinElmer proximity assay (ALPHA) using the SM320 antibody, Protein A-conjugated acceptor-beads (which bind SM320) and streptavidin-conjugated donor-beads (which bind biotin) (FIG. 5A). cN1-Sb1 levels in DMSO-treated assay was 10-fold higher than in the presence of the inhibitor L-685,458 (L458; structure shown below)-treated assay. […]

[2] = target: T2, wild-type PS1 γ-secretase (Homo sapiens, UniProt P49768); assay: In vitro N1-Sb1 γ-secretase assay, membrane of N2a cells expressing wild-type PS1; format: biochemical, murine; settings: wild-type PS1; read-out: IC50 of γ-secretase inhibition (N1-Sb1 cleavage)
T2 construct: total membrane
Procedure: as §1
(§2) An in vitro γ-secretase assay using a novel recombinant APP-derived substrate (termed “Sb4”) is disclosed in co-pending application U.S. Ser. No. 12/776,141. In the present assay based on a Notch-derived substrate, N1-Sb1 was incubated with the cell membrane fraction, prepared as described above, in the presence of 0.25% CHAPSO and 1×PIPES buffer (50 mM PIPES, pH 7.0, 150 mM KCl, 5 mM CaCl2, 5 mM MgCl2. The reaction was incubated at 37° C. for 2 hours. The Perkin Elmer AlphaScreen™ detection system was employed to assay for Notch cleavage. AlphaScreen (PerkinElmer Life and Analytical Sciences, Shelton, Conn.) is a bead based non-radioactive Amplified Luminescent Proximity Homogeneous Assay (ALPHA). When a biological interaction brings the beads together, a cascade of chemical reactions acts to produce a greatly amplified signal. Specifically, upon laser excitation, a photosensitizer in the “Donor” bead converts ambient (triplet) oxygen to the more reactive singlet state. The singlet state oxygen molecules diffuse into the solvent, and may react with a thioxene derivative in the Acceptor bead if nearby, generating chemiluminescence at 370 nm that further activates fluorophores contained in the same bead. The fluorophores subsequently emit light at 520-620 nm. In the absence of a specific biological interaction, the singlet state oxygen molecules produced by the donor bead go undetected without the close proximity of the acceptor bead. As a result no fluorescence signal at 520-620 nm is produced.
(§3) In the present system, antibody SM320, Protein A-conjugated acceptor beads, and Streptavidin-conjugated donor beads (PerkinElmer) were added to the reaction at a final concentration of 0.2 μg/ml, 2.5 μg/ml and 5 μg/ml, respectively (diagrammed in FIG. 5A). The reaction was incubated in the dark at room-temperature for 4 hours. The ALPHA signal was detected using the Envision plate reader (Perkin Elmer). The reactions were excited at 680 nm and signal was detected at 615 nm.
(§4) The effects of PS1 FAD mutations on Notch cleavage were determined using the new γ-secretase assay described in Example 2. The activities of two PS1 FAD mutations—PS1 M146L and E280A were compared against wild-type PS1 (WT), which has been previously studied (25). Total membrane was isolated from N2a cells that stably express WT, M146L, or E280A mutants. N1-Sb1 was incubated with these membranes and the resulting cN1-Sb1 was detected with SM320. […] The M146L and E280A mutants had 40% and 14% activity remaining, respectively, compared to the activity of the wild type (FIG. 7A). […]

E280A PS1 γ-secretase = target: T3, E280A PS1 γ-secretase (Homo sapiens, UniProt P49768, E280A); assay: In vitro N1-Sb1 γ-secretase assay, membrane of N2a cells expressing E280A PS1; format: biochemical, murine; settings: E280A PS1; read-out: IC50 of γ-secretase inhibition (N1-Sb1 cleavage)
T3 construct: total membrane
Procedure: as §1, §2, §3, §4

## CC(C)C[C@H](NC(=O)[C@H](Cc1ccccc1)C[C@@H](O)[C@H](Cc1ccccc1)NC(=O)OC(C)(C)C)C(=O)N[C@@H](Cc1ccccc1)C(N)=O [L458]
[1]; fold higher in DMSO
  cN1-Sb1 levels in DMSO-treated assay versus inhibitor-treated assay: 10 fold
[1]
  IC50: 0.7 nM
[2]
  IC50: 0.5 nM
E280A PS1 γ-secretase
  IC50: 0.46 nM

## CC(NC(=O)Cc1cc(F)cc(F)c1)C(=O)NC1N=C(c2ccccc2)c2ccccc2N(C)C1=O (stereo not shown) [Compound E]
[1]
  IC50: 1 nM
[2]
  IC50: 0.78 nM
E280A PS1 γ-secretase
  IC50: 0.71 nM
